One series has as its target human 5HT2b receptor (Homo sapiens, UniProt P41595). Kind of series: 5HT2b Binding Procedure (competition binding with 3H-LSD, CHO cell membranes).
For a further series, the target named is T1, human 5HT2c receptor (Homo sapiens, UniProt P28335).
T1 construct: expressed in transfected cells; host or cells: Swiss 3T3 mouse cells (ATCC)
T1 sequence (P28335 33-458): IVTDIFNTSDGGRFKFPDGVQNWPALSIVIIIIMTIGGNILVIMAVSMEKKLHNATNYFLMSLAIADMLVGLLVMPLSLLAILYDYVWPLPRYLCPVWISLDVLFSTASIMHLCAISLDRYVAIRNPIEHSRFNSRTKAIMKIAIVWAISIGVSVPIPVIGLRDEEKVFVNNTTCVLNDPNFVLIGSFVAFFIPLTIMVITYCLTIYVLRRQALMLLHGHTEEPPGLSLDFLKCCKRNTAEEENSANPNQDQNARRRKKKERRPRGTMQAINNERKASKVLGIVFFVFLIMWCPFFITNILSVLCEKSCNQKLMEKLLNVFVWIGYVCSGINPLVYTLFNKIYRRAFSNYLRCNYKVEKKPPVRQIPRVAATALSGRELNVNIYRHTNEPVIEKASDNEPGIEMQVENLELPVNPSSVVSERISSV
Kind of series: 5HT2c Binding Procedure (competition binding against 3H-5HT, membranes of transfected Swiss 3T3 mouse cells). How it is done: Affinity of compounds at the serotonin 5HT2c binding site is determined by competition binding in Swiss 3T3 mouse cells (available from the American Type Culture Collection (ATCC), Manassas, Va.) transfected with the human 5HT2c receptor against ^3H-5HT.

The next series addresses T2, rat 5HT2a receptor (Rattus norvegicus, UniProt P14842).
T2 construct: expressed in transfected cells; host or cells: NIH 3T3 mouse cells
Kind of series: 5HT2a Binding Procedure (competition binding using 125I-DOI, membranes of transfected NIH 3T3 mouse cells). How it is done: Affinity of compounds at the serotonin 5HT2a binding site is determined by competition binding in NIH 3T3 mouse cells transfected with the rat 5HT2a receptor using 125I-DOI.

For series [1] the following is noted: cited from earlier work.
Setting [2] is: receptor binding, 5HT2c, read-out: 2cKi.
[3] abbreviates: receptor binding, 5HT2a, read-out: 2aKi.

Like-named read-outs stand apart in the source and are kept apart here.

In general, half-life refers to how long it takes for the measured level to halve.

Sequence of human 5HT2b receptor (P41595 whole entry): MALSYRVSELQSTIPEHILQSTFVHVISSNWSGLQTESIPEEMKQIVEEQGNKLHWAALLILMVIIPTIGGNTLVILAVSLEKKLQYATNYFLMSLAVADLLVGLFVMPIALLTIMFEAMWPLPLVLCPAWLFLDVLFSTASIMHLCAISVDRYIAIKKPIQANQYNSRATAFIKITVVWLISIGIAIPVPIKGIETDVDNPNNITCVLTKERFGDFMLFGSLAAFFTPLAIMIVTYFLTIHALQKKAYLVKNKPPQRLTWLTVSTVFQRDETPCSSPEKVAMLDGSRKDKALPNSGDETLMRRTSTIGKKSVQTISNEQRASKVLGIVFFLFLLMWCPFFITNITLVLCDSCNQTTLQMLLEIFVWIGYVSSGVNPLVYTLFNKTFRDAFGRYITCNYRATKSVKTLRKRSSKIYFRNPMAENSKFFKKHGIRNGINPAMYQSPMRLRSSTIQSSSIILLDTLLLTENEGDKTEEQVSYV
T2 sequence (P14842 whole entry): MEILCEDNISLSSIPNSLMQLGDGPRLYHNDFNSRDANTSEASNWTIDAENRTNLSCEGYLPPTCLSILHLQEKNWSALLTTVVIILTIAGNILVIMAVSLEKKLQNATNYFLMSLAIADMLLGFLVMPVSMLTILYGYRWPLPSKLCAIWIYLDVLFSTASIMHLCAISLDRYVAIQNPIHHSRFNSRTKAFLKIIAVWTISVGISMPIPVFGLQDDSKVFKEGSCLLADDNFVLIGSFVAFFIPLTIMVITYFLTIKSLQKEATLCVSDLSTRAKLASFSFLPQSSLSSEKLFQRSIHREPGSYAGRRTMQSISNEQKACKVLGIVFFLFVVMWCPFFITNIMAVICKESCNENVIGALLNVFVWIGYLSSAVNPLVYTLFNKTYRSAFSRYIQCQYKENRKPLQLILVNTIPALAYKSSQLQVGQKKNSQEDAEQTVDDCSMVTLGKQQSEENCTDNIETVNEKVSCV
Description for human 5HT2b receptor: Affinity of compounds for the human 5HT2b receptor is determined by competition binding using membranes prepared from Chinese hamster ovary (CHO) cells containing the tetracycline operator (Flp-In Trex system—Invitrogen) that were engineered to express the human 5HT2b receptor. […] The supernatant was removed and discarded, while the pellet was resuspended in homogenization buffer, then centrifuged for 20 minutes at 25,000×g at 4° C. The supernatant was discarded while the pellet (containing membranes) was resuspended in homogenization buffer, and the membranes were aliquoted and frozen at −80° C. The binding assay was set up in 96-well plates, which contained 2 μl of test compound (in 100% DMSO) then 100 μl of ^3H-LSD (final concentration=3 nM) diluted in assay buffer (50 mM Tris pH 7.4, 4 mM CaCl2, 0.1% Ascorbic Acid), followed by the addition of 100 μl of membranes (approximately 15 μg membrane protein, diluted in assay buffer) from 5HT2b -expressing cells. 1 μM mianserin was used to calculate non-specific binding. The assay plates were incubated at 37° C. for 60 minutes, then the assay was terminated by filtration onto 96-well UniFilter™ plates (with GF/C filters—from PerkinElmer™) which were pre-soaked in 0.3% PEI. The filterplates were washed 2× with cold wash buffer (50 mM Tris, pH 7.4), then dried, scintillation fluid added and radioactivity determined in a Wallac Microbeta™ plate scintillation counter (PerkinElmer™). Concentration-response curves of the % inhibition of specific binding by test compounds versus the test compound concentration, was used to determine the IC50 for each compound and the Ki value calculated based on the Cheng-Prusoff equation (Ki=IC50/(1+(L/Kd)), where L is the concentration of the radioligand used in the binding assay and the Kd is based on previous saturation studies with the radioligand.

Take `Fc1ccc(F)c(CO[C@H]2CCc3ccc(N4CCNCC4)nc32)c1` [Example 1A-37, (7S)-7-[(2,5-difluorobenzyl)oxy]-2-piperazin-1-yl-6,7-dihydro-5H-cyclopenta[b]pyridine]: the Ki was found to be 159 nM at human 5HT2b receptor, 26.6 nM on human 5HT2c receptor and 25 nM on rat 5HT2a receptor.
For the compound `C[C@@H]1CNCCN1c1ccc2c(n1)[C@@H](Oc1ccccc1F)CC2` [Example 4A-4], the Ki at human 5HT2b receptor is 21 nM; on human 5HT2c receptor (setting [2]) it was 5.11 nM; at rat 5HT2a receptor (setting [3]) it was 4.14 nM.
In the same order, the values of `Fc1cc2c(c(O[C@H]3CCc4ccc(N5CCNCC5)nc43)c1)CCC2` [Example 3A-76, (7S)-7-[(6-fluoro-2,3-dihydro-1H-inden-4-yl)oxy]-2-piperazin-1-yl-6,7-dihydro-5H-cyclopenta[b]pyridine] are 53 nM, 3 nM and 2.8 nM.
Consider `O=C1Cc2cc(CCN3CCN(c4nsc5ccccc45)CC3)c(Cl)cc2N1` [Ziprasidone, 5-[2-[4-(1,2-benzisothiazol-3-yl)piperazin-1-yl]ethyl]-6-chloroindolin-2-one], for which, in series [1] (in vivo), the half-life was 6 to 7 h and the protein binding result is “extensive”. Moreover, the Oral bioavailability entry in series [1] (taken with food) is on record as “approximately 60%”.
Consider `c1ccc2c(O[C@H]3CCc4ccc(N5CCNCC5)nc43)cncc2c1` [Example 3A-83, 4-{[(7S)-2-piperazin-1-yl-6,7-dihydro-5H-cyclopenta[b]pyridin-7-yl]oxy}isoquinoline], for which the Ki stood at 145 nM at human 5HT2b receptor (read-out: 2bKi, receptor binding, 5HT2b); 17.9 nM on human 5HT2c receptor; 46.8 nM on rat 5HT2a receptor.
Consider `C[C@@H]1CNCCN1c1ccc2c(n1)[C@@H](OCc1cccc(C#N)c1)CC2` [Example 2A-4, 3-[({(7S)-2-[(2R)-2-methylpiperazin-1-yl]-6,7-dihydro-5H-cyclopenta[b]pyridin-7-yl}oxy)methyl]benzonitrile], for which the Ki at human 5HT2b receptor was 803 nM; at human 5HT2c receptor (setting [2]), 6.9 nM; on rat 5HT2a receptor (setting [3]) it was 33.9 nM.

These data come from US7507732B2, “Cyclopentapyridine and tetrahydroquinoline derivatives” (Pfizer Inc., priority 2005, dated 2009).
